Measurements reported in patent publication US12083124B2 (Incyte Corporation, priority 2019, dated 2024).
Like-named read-outs stand apart in the source and are kept apart here.

Experiments:
[1] = target: wild-type un-phosphorylated FGFR2 (Homo sapiens, UniProt P21802); experiment: FGFR Enzymatic Assay (FRET peptide phosphorylation), FGFR2
Description: The inhibitor potency of the exemplified compounds was determined in an enzyme discontinuous assay that measures peptide phosphorylation using FRET measurements to detect product formation. Inhibitors were serially diluted in DMSO and a volume of 0.2 μL was transferred to the wells of a 384-well plate. […] Appropriate controls (enzyme blank and enzyme with no inhibitor) were included on the plate. […] The 10 μL/well reaction concentration of the peptide substrate was 500 nM whereas the ATP concentration was maintained near or below the ATP Km. The ATP Km values were pre-determined in a separate series of experiments. The reaction plate was incubated at 25° C. for 1 hr and the reactions were ended with the addition of 5 μL/well of quench solution (50 mM Tris, 150 mM NaCl, 0.5 mg/mL BSA, pH 7.8; 45 mM EDTA, 600 nM staurosporin, with Perkin Elmer Lance Reagents at 3.75 nM Eu-antibody PY20 and 180 nM APC-Streptavidin). The plate was allowed to equilibrate for ˜10 minutes at ambient temperature before scanning on a PheraStar plate reader (BMG Labtech) instrument.
Either GraphPad prism or XLfit was used to analyze the data. The IC50 values were derived by fitting the data to a four parameter logistic equation producing a sigmoidal dose-response curve with a variable Hill coefficient. Prism equation: Y=Bottom+(Top-Bottom)/(1+10^((Log IC50-X)*Hill slope)); XLfit equation: Y=(A+((B−A)/(1+((X/C)^D)))) where X is the logarithm of inhibitor concentration and Y is the response.
GraphPad prism3 was used to analyze the data. The IC50 values were derived by fitting the data to the equation for a sigmoidal dose-response with a variable slope. Y=Bottom+(Top-Bottom)/(1+10^((Log IC50-X)*Hill Slope)) where X is the logarithm of concentration and Y is the response.
The data in Table 1 was measured in wild-type un-phosphorylated FGFR1, FGFR2, FGFR3, and FGFR4 proteins.

[2] = target: wild-type un-phosphorylated FGFR3 (Homo sapiens, UniProt P22607); experiment: FGFR Enzymatic Assay (FRET peptide phosphorylation), FGFR3
[3] = target: wild-type un-phosphorylated FGFR4 (Homo sapiens, UniProt P22455); experiment: FGFR Enzymatic Assay (FRET peptide phosphorylation), FGFR4
[4] = target: wild-type un-phosphorylated FGFR1 (Homo sapiens, UniProt P11362); experiment: FGFR Enzymatic Assay (FRET peptide phosphorylation), FGFR1; settings: pre-incubated for 4 hours
[5] = read-out: FGFR1, wild-type un-phosphorylated FGFR1
[6] = read-out: FGFR4, wild-type un-phosphorylated FGFR4, pre-incubated for 4 hours
[7] = FGFR1, wild-type un-phosphorylated FGFR1

Chain of wild-type un-phosphorylated FGFR2 (P21802 22-821): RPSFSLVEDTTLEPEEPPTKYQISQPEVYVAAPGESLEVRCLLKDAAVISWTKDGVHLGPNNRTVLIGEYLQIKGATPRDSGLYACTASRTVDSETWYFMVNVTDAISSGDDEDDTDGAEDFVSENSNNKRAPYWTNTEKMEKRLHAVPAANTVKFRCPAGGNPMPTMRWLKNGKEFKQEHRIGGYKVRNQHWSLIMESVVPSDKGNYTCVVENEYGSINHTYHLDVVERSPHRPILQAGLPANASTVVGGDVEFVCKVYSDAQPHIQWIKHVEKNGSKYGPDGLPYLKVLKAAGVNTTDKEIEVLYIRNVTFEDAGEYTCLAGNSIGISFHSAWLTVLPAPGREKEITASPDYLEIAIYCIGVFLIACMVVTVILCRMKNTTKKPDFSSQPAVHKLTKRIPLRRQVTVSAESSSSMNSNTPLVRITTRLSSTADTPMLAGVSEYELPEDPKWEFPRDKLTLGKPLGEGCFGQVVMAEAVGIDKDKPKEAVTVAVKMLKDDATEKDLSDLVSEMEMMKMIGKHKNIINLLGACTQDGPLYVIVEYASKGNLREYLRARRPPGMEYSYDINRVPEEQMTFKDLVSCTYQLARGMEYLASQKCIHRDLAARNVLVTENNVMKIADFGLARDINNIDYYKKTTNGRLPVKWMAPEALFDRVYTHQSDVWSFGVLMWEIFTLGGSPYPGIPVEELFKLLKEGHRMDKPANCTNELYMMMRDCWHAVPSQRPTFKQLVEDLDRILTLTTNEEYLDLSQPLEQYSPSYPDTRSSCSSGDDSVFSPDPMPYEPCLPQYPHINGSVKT
Chain of wild-type un-phosphorylated FGFR1 (P11362 22-822): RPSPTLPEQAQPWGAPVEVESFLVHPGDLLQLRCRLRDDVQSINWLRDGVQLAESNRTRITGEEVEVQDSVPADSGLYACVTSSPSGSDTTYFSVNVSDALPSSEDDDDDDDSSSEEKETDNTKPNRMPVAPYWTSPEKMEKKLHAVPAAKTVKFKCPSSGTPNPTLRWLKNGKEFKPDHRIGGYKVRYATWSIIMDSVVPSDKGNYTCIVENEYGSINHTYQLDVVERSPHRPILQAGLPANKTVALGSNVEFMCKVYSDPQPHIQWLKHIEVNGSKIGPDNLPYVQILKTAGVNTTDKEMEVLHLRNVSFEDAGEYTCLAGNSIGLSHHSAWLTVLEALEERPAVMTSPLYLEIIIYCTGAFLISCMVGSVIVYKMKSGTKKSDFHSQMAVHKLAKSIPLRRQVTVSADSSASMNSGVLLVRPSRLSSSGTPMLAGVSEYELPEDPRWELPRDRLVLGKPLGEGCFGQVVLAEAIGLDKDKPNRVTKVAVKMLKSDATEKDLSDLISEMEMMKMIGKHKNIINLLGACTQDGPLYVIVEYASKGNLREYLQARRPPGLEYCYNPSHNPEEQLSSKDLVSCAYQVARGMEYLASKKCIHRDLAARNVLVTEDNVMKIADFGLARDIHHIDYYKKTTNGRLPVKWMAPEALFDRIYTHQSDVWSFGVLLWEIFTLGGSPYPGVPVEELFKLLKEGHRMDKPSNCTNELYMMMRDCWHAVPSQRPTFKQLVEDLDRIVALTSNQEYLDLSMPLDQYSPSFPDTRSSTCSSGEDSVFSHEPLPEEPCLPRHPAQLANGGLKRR
Chain of wild-type un-phosphorylated FGFR4 (P22455 22-802): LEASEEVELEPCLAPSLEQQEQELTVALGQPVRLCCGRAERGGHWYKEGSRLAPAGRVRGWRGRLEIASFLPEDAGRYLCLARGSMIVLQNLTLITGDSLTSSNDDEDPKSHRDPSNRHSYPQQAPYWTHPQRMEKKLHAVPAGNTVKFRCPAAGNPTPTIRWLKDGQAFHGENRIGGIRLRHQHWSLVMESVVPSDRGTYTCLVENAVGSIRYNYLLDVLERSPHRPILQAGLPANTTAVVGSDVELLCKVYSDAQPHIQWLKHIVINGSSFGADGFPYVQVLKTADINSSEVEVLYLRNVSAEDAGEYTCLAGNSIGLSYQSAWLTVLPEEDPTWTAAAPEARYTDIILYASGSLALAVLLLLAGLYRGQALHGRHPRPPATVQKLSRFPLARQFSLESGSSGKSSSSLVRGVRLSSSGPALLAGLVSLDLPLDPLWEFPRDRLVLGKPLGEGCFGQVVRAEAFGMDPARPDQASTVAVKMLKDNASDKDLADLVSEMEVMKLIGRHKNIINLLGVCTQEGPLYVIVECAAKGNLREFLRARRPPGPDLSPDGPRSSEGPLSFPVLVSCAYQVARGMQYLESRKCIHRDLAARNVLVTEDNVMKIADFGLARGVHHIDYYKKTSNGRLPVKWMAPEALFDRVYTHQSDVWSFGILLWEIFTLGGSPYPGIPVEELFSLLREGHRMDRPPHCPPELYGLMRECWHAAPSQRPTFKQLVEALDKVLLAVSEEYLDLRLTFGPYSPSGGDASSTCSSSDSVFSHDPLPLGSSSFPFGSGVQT
Chain of wild-type un-phosphorylated FGFR3 (P22607 23-806): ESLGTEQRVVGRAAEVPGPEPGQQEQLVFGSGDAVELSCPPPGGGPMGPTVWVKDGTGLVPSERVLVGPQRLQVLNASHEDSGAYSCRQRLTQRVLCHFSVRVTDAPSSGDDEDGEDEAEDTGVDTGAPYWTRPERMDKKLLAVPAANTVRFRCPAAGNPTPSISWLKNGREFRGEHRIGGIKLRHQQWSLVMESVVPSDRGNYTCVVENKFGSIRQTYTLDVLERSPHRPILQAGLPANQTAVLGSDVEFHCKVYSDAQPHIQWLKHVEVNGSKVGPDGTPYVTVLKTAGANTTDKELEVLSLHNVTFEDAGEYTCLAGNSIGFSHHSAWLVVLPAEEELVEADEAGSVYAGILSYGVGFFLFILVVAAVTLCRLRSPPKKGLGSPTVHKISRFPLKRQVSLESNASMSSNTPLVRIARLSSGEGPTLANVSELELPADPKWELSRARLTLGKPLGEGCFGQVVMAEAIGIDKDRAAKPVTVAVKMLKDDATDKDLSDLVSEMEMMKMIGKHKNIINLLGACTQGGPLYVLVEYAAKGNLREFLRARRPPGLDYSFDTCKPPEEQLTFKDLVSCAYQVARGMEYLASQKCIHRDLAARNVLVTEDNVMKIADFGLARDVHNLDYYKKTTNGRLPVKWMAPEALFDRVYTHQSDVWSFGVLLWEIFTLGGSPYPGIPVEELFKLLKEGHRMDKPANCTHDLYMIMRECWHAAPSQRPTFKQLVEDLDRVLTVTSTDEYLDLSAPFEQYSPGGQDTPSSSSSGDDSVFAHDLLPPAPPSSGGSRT

SMILES	IC50 [1]	IC50 [2]	IC50 [3]	IC50 [4, 5]	IC50 [3, 6]	IC50 [4, 7]	IC50 ([1]; read-out: FGFR2, wild-type un-phosphorylated FGFR2, pre-incubated for 4 hours)	IC50 ([2]; read-out: FGFR3, wild-type un-phosphorylated FGFR3, pre-incubated for 4 hours)
COc1cc2[nH]nc(-c3ccc(C4CC(N(C)C(=O)[C@H](C)O)C4)nc3)c2nc1-c1cccc2c1CCC2 (stereo partly drawn) [Example 190, (S)-N-(3-(5-(5-(2,3-Dihydro-1H-inden-4-yl)-6-methoxy-1H-pyrazolo[4,3-b]pyridin-3-yl)pyridin-2-yl)cyclobutyl)-2-hydroxy-N-methylpropanamide]	< 6 nM	< 6 nM	40 to 100 nM	6 to 40 nM	–	–	–	–
COc1cc2[nH]nc(-c3cnn([C@H]4CCN(C(=O)[C@H]5C[C@@](C)(O)C5)C4)c3)c2nc1-c1cccc2c1CCC2 [Example 146, ((S)-3-(4-(5-(2,3-Dihydro-1H-inden-4-yl)-6-methoxy-1H-pyrazolo[4,3-b]pyridin-3-yl)-1H-pyrazol-1-yl)pyrrolidin-1-yl)((1s,3r)-3-hydroxy-3-methylcyclobutyl)methanone]	< 6 nM	< 6 nM	–	6 to 40 nM	6 to 40 nM	–	–	–
COc1cc2[nH]nc(-c3ccc(N4CCN(C(C)=O)CC4)cc3)c2nc1-c1cccc2c1CCC2 [Example 61, 1-(4-(4-(5-(2,3-Dihydro-1H-inden-4-yl)-6-methoxy-1H-pyrazolo[4,3-b]pyridin-3-yl)phenyl)piperazin-1-yl)ethan-1-one]	< 6 nM	< 6 nM	> 100 nM	–	–	40 to 100 nM	–	–
COc1cc2[nH]nc(-c3cnn(C4CC(C#N)C4)c3)c2nc1-c1cccc2c1CCC2 (stereo not shown) [Example 16, 3-(4-(5-(2,3-Dihydro-1H-inden-4-yl)-6-methoxy-1H-pyrazolo[4,3-b]pyridin-3-yl)-1H-pyrazol-1-yl)cyclobutanecarbonitrile]	< 6 nM	< 6 nM	> 100 nM	–	–	40 to 100 nM	–	–
COc1cc2[nH]nc(-c3ccc(N4CCN5C[C@@H](O)C[C@@H]5C4)nc3)c2nc1-c1cccc(C)c1C [Example 85, (7S,8aR)-2-(5-(5-(2,3-Dimethylphenyl)-6-methoxy-1H-pyrazolo[4,3-b]pyridin-3-yl)pyridin-2-yl)octahydropyrrolo[1,2-a]pyrazin-7-ol]	< 6 nM	< 6 nM	40 to 100 nM	–	–	40 to 100 nM	–	–
COc1cc2[nH]nc(-c3ccc(C4CCN(C(C)=O)C4)nc3)c2nc1-c1cccc2c1CCC2 (single isomer, unassigned) [Example 104, 1-(3-(5-(5-(2,3-Dihydro-1H-inden-4-yl)-6-methoxy-1H-pyrazolo[4,3-b]pyridin-3-yl)pyridin-2-yl)pyrrolidin-1-yl)ethan-1-one]	–	–	–	6 to 40 nM	6 to 40 nM	–	< 6 nM	< 6 nM
COc1cc2[nH]nc(-c3cnn([C@H]4CCN(C(=O)[C@@H]5CCN5CCF)C4)c3)c2nc1-c1cccc2c1CCC2 [Example 143, ((S)-3-(4-(5-(2,3-dihydro-1H-inden-4-yl)-6-methoxy-1H-pyrazolo[4,3-b]pyridin-3-yl)-1H-pyrazol-1-yl)pyrrolidin-1-yl)((S)-1-(2-fluoroethyl)azetidin-2-yl)methanone]	< 6 nM	< 6 nM	–	6 to 40 nM	6 to 40 nM	–	–	–
COc1cc2[nH]nc(-c3ccc(C4CCC(N(C)C(=O)CO)C4)nc3)c2nc1-c1cccc2c1CCC2 (single isomer, unassigned) [Example 155, N-(3-(5-(5-(2,3-Dihydro-1H-inden-4-yl)-6-methoxy-1H-pyrazolo[4,3-b]pyridin-3-yl)pyridin-2-yl)cyclopentyl)-2-hydroxy-N-methylacetamide]	< 6 nM	< 6 nM	–	6 to 40 nM	6 to 40 nM	–	–	–
COc1cc2[nH]nc(-c3cnn(CC#N)c3)c2nc1-c1cccc2c1CCC2C#N (single isomer, unassigned) [Example 185, 4-(3-(1-(Cyanomethyl)-1H-pyrazol-4-yl)-6-methoxy-1H-pyrazolo[4,3-b]pyridin-5-yl)-2,3-dihydro-1H-indene-1-carbonitrile]	< 6 nM	< 6 nM	–	–	6 to 40 nM	40 to 100 nM	–	–
COc1cc2[nH]nc(-c3ccc([C@@]45C[C@@H]4CN(CCO)C5)cc3)c2nc1-c1cccc2c1CCC2C#N (stereo partly drawn) [Example 159, 4-(3-(4-((1R,5S)-3-(2-Hydroxyethyl)-3-azabicyclo[3.1.0]hexan-1-yl)phenyl)-6-methoxy-1H-pyrazolo[4,3-b]pyridin-5-yl)-2,3-dihydro-1H-indene-1-carbonitrile]	< 6 nM	< 6 nM	–	6 to 40 nM	6 to 40 nM	–	–	–
